One compound from patent US11596626B2, “Compound for use against pathogenic Neisseria and Haemophilus species and Moraxella catarrhalis” (priority 2017, dated 2023) can be followed below.

In data set [1] the test system is Neisseria gonorrhoeae strain MS11. Briefly: Growth curves in liquid culture (optical density) vs DMSO control. Format: cell-based. The method, then:
(§1) Growth experiments with NQNO were conducted against Neisseria gonorrhoeae strain MS11 (Edwards, M., et al., Antigenic analysis of gonococcal pili using monoclonal antibodies, J Exp Med, 1984. 160(6): p. 1782-91) and a multidrug-resistant N. gonorrhoeae isolate from Slovenia (Unemo M, Golparian O, Potočnik M, Jeverica S. Treatment failure of pharyngeal gonorrhoea with internationally recommended first-line ceftriaxone verified in Slovenia, September 2011. Euro Surveill. 2012; 17(25):pii=20200), Neisseria macacae, and Lactobacillus brevis. The bacteria were inoculated in GC (Difco™ GC medium Ref. 228950, BD Becton Dickinson) and PPM broth (15 g/L Proteon Pepton, 1 g/L soluble starch, 5 g/L NaCl, 4 g/L KH2PO4, 1 g/L K2HPO4, pH 7.5) (Neisseriae) or TSB (BBL™ Trypticase Soy Broth Ref 211768, BD Becton Dickinson) (Lactobacillus) supplemented with solvent (DMSO) or the indicated concentrations of NQNO (5-50 04) and their growth at 37° C. was monitored over the course of 10 h by optical density readings in 30 minute intervals.
(§2) Neisseria strains were cultured in PPM medium (15 g/l Proteon Pepton, 1 g/l soluble starch, 5 g/l NaCl, 4 g/l KH2PO4, 1 g/l K2HPO4, pH 7.5) for liquid culture and on GC plates (BD Difco™ GC Medium Base) supplemented with 1% vitamin mix (100 g/l glucose, 10 WI glutamine, 26 g/l L-cystein, 100 mg/l carboxylase, 250 mg/l NAD, 500 μl Fe(NO3)3, 150 mg/l arginine, 3 mg/l thiamine-HCl, 10 mg/l vitamine B12, 13 mg/I p-amino benzoic acid, 1.1 g/l L-cystin, 1 g/l adenine; 500 mg/l uracil, 30 mg/I guanine). […]
(§3) Before every experiment, bacteria were pre-cultured in 5 ml liquid medium for at least 2 hours then harvested and resuspended in PBS (phosphate buffered saline). Optical density (OD) was determined and a volume equal to an OD of 0.2 was inoculated into 5 ml of the respective medium. […] Samples were incubated for either 10.5 hours, until they reached stationary phase (three measured values in stationary phase) or until they reached an OD of 2.5. Optical density was determined every 0.5 h.

The subject of a further data set is Neisseria macacae. Described as above. The settings on record: 5-50 μM, FIG. 3. Format: cell-based. How it is done:
as §1, §2, §3

For a further data set, the system named is Lactobacillus brevis. Described as above. In kind it is cell-based. Particulars: 5-50 μM, FIG. 4. How it is done: as §1, with “intervals. […]” for “intervals.”
Before every experiment, bacteria were pre-cultured in 5 ml liquid medium for at least 2 hours then harvested and resuspended in PBS (phosphate buffered saline). Optical density (OD) was determined and a volume equal to an OD of 0.2 was inoculated into 5 ml of the respective medium. […] Optical density was determined every 0.5 h.

For another data set, the system named is HeLa cells. Briefly: MTT assay of metabolic activity (cytotoxicity). Format: cell-based, human. The method, then: HeLa cells in 24-well plate were incubated for 24 h with concentrations of 0.5 to 10 μM NQNO or solvent (DMSO) as a control. Metabolic activity as a measure of mitochondrial respiration was recorded using 3-(4,5-Dimethylthiazol-2-yl)-2,5-diphenyltetrazoliumbromid (MTT) as reporting agent, Activity was measured with a plate reader at 550 nm, (FIG. 6). Shown are mean values+/S.D. of four replicate wells.
HeLa S3 cells were cultivated in Dulbecco's modified Eagle's medium (DMEM) medium supplemented with 10% fetal calf serum and passaged every 2-3 days. Primary human vaginal epithelial cells (hVEC/MS74) were obtained from A. J. Schaeffer (Feinberg School of Medicine, Northwestern University, Chicago, Ill.) and are derived from vaginal tissue of a post-menopausal person. The cell line was created through immortalization of these cells with human papilloma virus 16, E6 and E7 genes according to literature (N. Rajan et. al., Characterization of an immortalized human vaginal epithelial cell line. J Urol 163, 616-622 (2000)). […]
All plates were coated overnight at 4° C. with 0.1% gelatine in PBS before use. […] 0D550 was measured using a Thermo Fisher Varioskan Flash spectrophotometer.
In general terms: Formazan colour is commonly taken as a measure of viable cells.

`CCCCCCCCCc1cc(=O)c2ccccc2n1O` [NQNO, 1-Hydroxy-2-nonylquinolin-4(1H)-one]: the “Concentration leading to complete abrogation of gonococcal growth in vitro” value was ≤ 5 µM in data set [1] (N. gonorrhoeae MS11, 37° C., growth monitored over 10 h, FIG. 1) and < 1.4 µg/mL in data set [1] (N. gonorrhoeae MS11, mass concentration given for 5 μM). For the same compound, the Effect on growth entry in the data set on Neisseria macacae and in the data set on Lactobacillus brevis was “did not compromise the growth” in each case. The “Cytotoxicity (metabolic activity, MTT)” value is recorded as “does not lead to cytotoxicity” with HeLa cells (10 μM, up to 24 h, preliminary experiment, FIG. 6) and “did not exhibit signs of cytotoxicity” in the data set with HeLa cells (up to 10 μM, 48 h, FIG. 12).
